Assays:
Experiment in all cases: MTSEA thiol modification rate (SCAM) from ACh-evoked currents in oocytes
Format in all cases: cell-based, chick
Settings in all cases: 10 mM Ba^2+
[1] = target: α7 AChR N^170C mutant (C^115A/L^247T background) (Gallus gallus, UniProt P22770, C138A/L270T/N193C)
Description: (§1) ACh-evoked current amplitudes decreased following brief, repeated exposure to a limiting concentration of MTSEA (5 μM, 15 seconds). To ensure that the modification reactions were complete, all rate measurements included a final prolonged application of ~100-fold higher concentrations of MTSEA (Fig. 3A and 3B, right). Currents measured following this application represent the endpoint of the reaction between MTSEA and receptors. When the same protocol included Ba^2+ pretreatment and co-application with MTSEA (see Methods), the decreases in current amplitudes were slowed but the same endpoint was obtained (Fig. 3B). Normalized current amplitudes were plotted as a function of the cumulative time of exposure to MTSEA, and pseudo first-order rates were extracted from the single-exponential fits (Fig. 3C).
(§2) Figure 3 Barium slows the rate of MTSEA modification at M^37C. Example of experimental paradigm used to assess Ba^2+ effects on modification rates. […] Endpoints of MTSEA modification are determined by prolonged application of 500 μM MTSEA (right). (B) The same protocol, including Ba^2+ pretreatment and co-application with MTSEA. Current traces are truncated in both (A) and (B) between consecutive MTSEA applications; in all cases the currents were allowed to return to baseline prior to the next application of MTSEA ± ACh. (C) Peak current amplitudes from (A) and (B) are normalized and plotted versus total MTSEA exposure time. Data from this single experiment (no error bars) are fitted to a single-exponential decay (solid line) to extract an apparent pseudo first-order rate constant. The pseudo first-order rate constants calculated in this experiment were 0.011 s^-1 and 0.0019 s^-1 for control (A) and +Ba^2+ (B) measurements, respectively. Second-order rate constants are calculated from these values (Figures 4–6; Table 2).
(§3) Oocytes were superfused in normal extracellular solution containing a reduced Ca^2+ concentration (ESLC; 96 mM NaCl, 2 mM KCl, 1 mM MgCl2, 0.1 mM CaCl2, and 10 mM HEPES, pH 7.5). This solution minimized Ca^2+ influx and eliminated Ca^2+-activated chloride currents. Two-electrode voltage clamp was performed with a GeneClamp 500B controlled by pCLAMP8 software (Molecular Devices, Sunnyvale, CA). Electrodes were filled with 3 M KCl contacting Ag-AgCl wires and had resistances of 0.5 to 2.0 MΩ. Currents were recorded at a constant holding potential of -60 mV. Currents were low pass filtered at 50 Hz and sampled at 100 Hz. Agonist dose-response curves were obtained as described previously, and data were fit to the Hill equation using Origin software (Microcal Software, Northampton, MA).
(§4) MTSEA was prepared daily in distilled water and stored on ice. Stock solution was diluted to the appropriate working concentration in ESLC immediately before each application. […] The limiting dose, yielding 20–40% of the maximal MTSEA effect, was identified for each mutant. […] To measure the effect of Ba^2+ on modification rates we pre-applied 10 mM Ba^2+ for 30 seconds prior to co-application of 10 mM Ba^2+ plus MTSEA. This concentration of Ba^2+ is equivalent to an approximate […] for the modulatory effects in both parental and mutant AChRs. Kinetic data were analyzed as described previously; rate data were fit to a single exponential to extract a pseudo-first order rate constant; this was divided by the MTSEA concentration used to determine the second order rate constant for thiol modification.

[2] = target: α7 AChR E^172C mutant (C^115A/L^247T background) (Gallus gallus, UniProt P22770, C138A/E195C/L270T)
Description: as §1, §2, §3, §4

[3] = target: α7 AChR N^52C mutant (C^115A/L^247T background) (Gallus gallus, UniProt P22770, C138A/L270T/N75C)
Description: as §1, §2, §3, §4

[4] = target: α7 AChR M^40C/E^172Q mutant (C^115A/L^247T background) (Gallus gallus, UniProt P22770, C138A/E195Q/L270T/M63C)
Description: as §1, §2, §3, §4

[5] = target: α7 AChR M^37C mutant (C^115A/L^247T background) (Gallus gallus, UniProt P22770, C138A/L270T/M60C)
Description: as §1, §2, §3, §4

[6] = target: α7 AChR E^44C mutant (C^115A/L^247T background) (Gallus gallus, UniProt P22770, C138A/E67C/L270T)
Description: as §1, §2, §3, §4

[7] = target: T1, α7 AChR M^40C mutant (C^115A/L^247T background) (Gallus gallus, UniProt P22770, C138A/L270T/M63C)
T1 construct: expressed in transfected cells; host or cells: Xenopus laevis oocytes injected with cRNA
Description: as §1, §2, §3, §4

[Ba+2].[Cl-].[Cl-] [Ba^2+, BaCl2]
effect of Ba^2+ on MTSEA modification rate [1]: the same as that measured in MTSEA alone
effect of Ba^2+ on MTSEA modification rate [2]: significant Ba^2+-dependent decreases
effect of Ba^2+ on MTSEA modification rate [3]: no significant effect
effect of Ba^2+ on MTSEA modification rate [4]: significant slowing
effect of Ba^2+ on MTSEA modification rate [5]: significant decreases
effect of Ba^2+ on MTSEA modification rate [6]: significant Ba^2+-dependent decreases
effect of Ba^2+ on MTSEA modification rate [7]: significant decreases

Reference: paper PMC2632993, “Conformational changes in α7 acetylcholine receptors underlying allosteric modulation by divalent cations” (BMC Pharmacology, 2009)
